Measured values published in the supplement of paper PMC12137928.
Counter-ions that a name gives are not always drawn.

Experiments:
HCT116 [1] = details: 72 h
Procedure, shortened: (§1)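 HCT116 cells were seeded at 250 per well in 1536-well plates and left 5 h to attach. CellTiter-Glo luminescence was scaled to vehicle (0%) and positive control (-100%), then pattern-corrected. IC50 and maximal efficacy came from four-parameter Hill fits.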

HCT116 [2] = test: efficacy (maximum % inhibition of viability vs DMSO); higher = more cytotoxic; details: 72 h
Procedure, shortened: as §1

Row | IC50 cell viability (HCT116 [1]; ICRF193 0 nM) [µM] | IC50 cell viability (HCT116 [1]; ICRF193 200 nM) [µM] | SMILES | efficacy (HCT116 [2]; ICRF193 0 nM) [%] | efficacy (HCT116 [2]; ICRF193 200 nM) [%]
1 | 14.6 | 2.06 | COC(=O)Nc1nc2cc([S+]([O-])c3ccccc3)ccc2[nH]1 (configuration not stated) [Oxfendazole] | 44.2 | 49.7
2 | 11.6 | 16.4 | CCCCCCCCCCCCCCCCCCNC(=O)OC1CCN(C(=O)OC[C@H](COC(=O)N(Cc2cccc[n+]2CC)C(=O)c2ccccc2OC)OC)CC1 [Minopafant] | 111 | 124
3 | 18.3 | 29.1 | C[C@]12CC[C@@H]3c4ccc(O)cc4CC[C@H]3[C@@H]1CC[C@@H]2O [Estradiol] | 49.5 | 51.8
4 | 20.6 | 18.3 | Cc1cc(/C=C/c2ccc3cc(N(C)C)ccc3[n+]2C)c(C)n1-c1ccccc1 [PYRVINIUM PAMOATE] | 111 | 93.2
5 | 23.1 | 29.1 | C=CC(=O)N1CCC[C@@H](n2nc(-c3ccc(Oc4ccccc4)cc3)c3c(N)ncnc32)C1 | 47.6 | 72.8
6 | > 45.8 | > 45.8 | CCC(C)(C)OC(=O)N[C@@H](Cc1c[nH]c2ccccc12)C(=O)N[C@@H](CCSC)C(=O)N[C@@H](CC(=O)O)C(=O)N[C@@H](Cc1ccccc1)C(N)=O [Amogastrin] | – | –
7 | > 45.8 | > 45.8 | Nc1ncnc2c1ncn2[C@@H]1O[C@H](COP(=O)(O)OP(=O)(O)OP(=O)(O)O)[C@@H](O)[C@H]1O [ATP (disodium salt)] | – | –
8 | > 45.8 | > 45.8 | CCCCCCCCCCCCCCCCOc1nc2ccc(C)cc2c(=O)o1 [Cetilistat] | – | –
9 | > 45.8 | > 45.8 | Nc1ccn([C@@H]2CS[C@H](CO)O2)c(=O)n1 [Lamivudine] | – | –
10 | > 45.8 | > 45.8 | CC(=C(CCO)SSCC1CCCO1)N(C=O)Cc1cnc(C)nc1N (stereo in doubt) [Fursultiamine Hydrochloride] | – | –
11 | > 45.8 | > 45.8 | CC[C@@]1(c2ccccc2)NC(=O)N(C)C1=O [(S)-Mephenytoin] | – | –
12 | > 45.8 | > 45.8 | CC(=O)Oc1ccc(C(=C2CCCCC2)c2ccc(OC(C)=O)cc2)cc1 [Cyclofenil] | – | –
13 | > 45.8 | > 45.8 | CC(=O)N[C@H](Cc1ccc2ccccc2c1)C(=O)N[C@H](Cc1ccc(Cl)cc1)C(=O)N[C@H](Cc1cccnc1)C(=O)N[C@@H](CO)C(=O)N[C@@H](Cc1ccc(O)cc1)C(=O)N[C@H](CCCNC(N)=O)C(=O)N[C@@H](CC(C)C)C(=O)N[C@@H](CCCNC(=N)N)C(=O)N1CCC[C@H]1C(=O)N[C@H](C)C(N)=O [Cetrorelix] | – | –
14 | > 45.8 | > 45.8 | c1ccc2sc(SSc3nc4ccccc4s3)nc2c1 [2,2'-Dithiobisbenzothiazole] | – | –
15 | > 45.8 | > 45.8 | CS(=O)(=O)c1ccc(C2=C(c3ccccc3)C(=O)OC2)cc1 [Rofecoxib] | – | –
16 | > 45.8 | > 45.8 | Cn1nnnc1SCC1=C(C(=O)O)N2C(=O)[C@@H](NC(=O)[C@H](O)c3ccccc3)[C@H]2SC1 [CEFAMANDOLE SODIUM] | – | –
17 | > 45.8 | > 45.8 | C#C[C@]1(O)CC[C@H]2[C@@H]3[C@H](C)CC4=C(CCC(=O)C4)[C@H]3CC[C@@]21C [Tibolone] | – | –
18 | > 45.8 | > 45.8 | CCOC(=O)c1ccc(C#Cc2ccc3c(c2)C(C)(C)CCS3)nc1 [Tazarotene] | – | –
19 | > 45.8 | > 45.8 | CCNC(=O)CCC/C=C\C[C@@H]1[C@@H](/C=C/[C@@H](O)CCc2ccccc2)[C@H](O)C[C@@H]1O [Bimatoprost] | – | –
20 | > 45.8 | > 45.8 | N=C(N)NS(=O)(=O)c1ccc(N)cc1 [Sulfaguanidine] | – | –
21 | > 45.8 | > 45.8 | CC(=O)SCC(CC(=O)c1ccc(C)cc1)C(=O)O (configuration not stated) [Esonarimod] | – | –
22 | > 45.8 | > 45.8 | CS(=O)(=O)OC[C@H](O)[C@@H](O)COS(C)(=O)=O [Treosulfan] | – | –
23 | > 45.8 | > 45.8 | CCCCCCCCCCCCCCCCCC(=O)O [Octadecanoic acid] | – | –
24 | > 45.8 | > 45.8 | CC1(C)S[C@@H]2[C@H](N3C(=O)[C@@H](c4ccccc4)NC3(C)C)C(=O)N2[C@H]1C(=O)O [HETACILLIN POTASSIUM] | – | –
25 | > 45.8 | > 45.8 | CCOc1ccc(C(=O)OCCN(CC)CC)cc1 [Parethoxycaine] | – | –
26 | > 45.8 | > 45.8 | COc1cc(C)c(/C=C/C(C)=C/C=C/C(C)=C/C(=O)O)c(C)c1C [Acitretin] | – | –

Row | IC50 cell viability (HCT116 [1]; ICRF193 0 nM) [µM] | IC50 cell viability (HCT116 [1]; ICRF193 200 nM) [µM] | SMILES | efficacy (HCT116 [2]; ICRF193 0 nM) [%] | efficacy (HCT116 [2]; ICRF193 200 nM) [%]
27 | > 45.8 | > 45.8 | OCC(O)C(O)C(O)CO (configuration not stated) [ARABITOL(D)] | – | –
28 | > 45.8 | > 45.8 | O=C1CC[C@@H](C(=O)O)N1 [2-Pyrrolidone-5-carboxylic acid] | – | –
29 | > 45.8 | > 45.8 | CC(=O)O[C@H]1Cc2ccccc2N(C(N)=O)c2ccccc21 [Eslicarbazepine (acetate)] | – | –
30 | > 45.8 | > 45.8 | COC(=S)NCCn1c([N+](=O)[O-])cnc1C [CARNIDAZOLE] | – | –
31 | > 45.8 | > 45.8 | CCCn1cnc2c1c(=O)n(CCCCC(C)=O)c(=O)n2C [Propentofylline] | – | –
32 | > 45.8 | > 45.8 | CN1[C@@H]2CC[C@H]1C[C@@H](NC(=O)n1c(=O)[nH]c3ccccc31)C2 [Itasetron] | – | –
33 | > 45.8 | > 45.8 | CCN(Cc1ccncc1)C(=O)C(CO)c1ccccc1 (configuration not stated) [Tropicamide] | – | –
34 | > 45.8 | > 45.8 | CCCCC(CC)COC(=O)c1ccccc1O (configuration not stated) [2-Ethylhexyl salicylate] | – | –
35 | > 45.8 | > 45.8 | CC1(C)S[C@@H]2[C@H](NC(=O)COc3ccccc3)C(=O)N2[C@H]1C(=O)O [PENICILLIN V POTASSIUM] | – | –
36 | > 45.8 | > 45.8 | NC(=S)NS(=O)(=O)c1ccc(N)cc1 [Sulfathiourea] | – | –
37 | > 45.8 | > 45.8 | CC(C)[C@@H](C)/C=C/[C@@H](C)[C@H]1CC[C@H]2/C(=C/C=C3\C[C@@H](O)CC[C@@H]3C)CCC[C@]12C [Dihydrotachysterol] | – | –
38 | > 45.8 | > 45.8 | CN(CCOc1ccc(NS(C)(=O)=O)cc1)CCc1ccc(NS(C)(=O)=O)cc1 [Dofetilide] | – | –
39 | > 45.8 | > 45.8 | CC(=O)OCC(=O)[C@H]1CC[C@H]2[C@@H]3CCC4=CC(=O)CC[C@]4(C)[C@H]3CC[C@]12C [Deoxycorticosterone acetate] | – | –
40 | > 45.8 | > 45.8 | Cc1nc(=O)c2cc(CN(C)c3ccc(C(=O)N[C@@H](CCC(=O)O)C(=O)O)s3)ccc2[nH]1 [Raltitrexed] | – | –
41 | > 45.8 | > 45.8 | Nc1cc(C(Cl)=C(Cl)Cl)c(S(N)(=O)=O)cc1S(N)(=O)=O [Clorsulon] | – | –
42 | > 45.8 | > 45.8 | C[C@]12C=CC(=O)C=C1CC[C@H]1[C@@H]3C[C@@H](O)[C@](O)(C(=O)CO)[C@@]3(C)C[C@H](O)[C@@]12F [Triamcinolone] | – | –
43 | > 45.8 | > 45.8 | CC(C)c1nc(N(C)S(C)(=O)=O)nc(-c2ccc(F)cc2)c1/C=C/[C@@H](O)C[C@@H](O)CC(=O)O [Rosuvastatin calcium (Crestor)] | – | –
44 | > 45.8 | > 45.8 | CN1CCN(C2=Nc3ccccc3Sc3ccc(Cl)cc32)CC1 [Clothiapine] | – | –
45 | > 45.8 | > 45.8 | N#Cc1ccc2[nH]cc(CCCCN3CCN(c4ccc5oc(C(N)=O)cc5c4)CC3)c2c1 [Vilazodone Hydrochloride] | – | –
46 | > 45.8 | > 45.8 | COc1cc(N)c(Cl)cc1C(=O)NC1CCN(CCCOc2ccc(F)cc2)CC1OC (configuration not stated) [Cisapride] | – | –
47 | > 45.8 | > 45.8 | CC/C=C\C/C=C\C/C=C\C/C=C\C/C=C\CCCC(=O)OCC [Eicosapentaenoic acid ethyl ester] | – | –
48 | > 45.8 | > 45.8 | Cl.NCCCC[C@H](N)C(=O)O [L-(+)-Lysine monohydrochloride] | – | –
49 | > 45.8 | > 45.8 | CC(=O)Oc1c(C)cc(OCC(O)CNC(C)C)c(C)c1C (configuration not stated) [Metipranolol] | – | –
50 | > 45.8 | > 45.8 | COc1ccccc1N1CCN(CCCNc2cc(=O)n(C)c(=O)n2C)CC1 [Urapidil hydrochloride] | – | –
51 | > 45.8 | > 45.8 | CCCc1nc(C(C)(C)O)c(C(=O)O)n1Cc1ccc(-c2ccccc2-c2nnn[nH]2)cc1 [Olmesartan] | – | –
52 | > 45.8 | > 45.8 | CC(/C=C1\SC(=S)N(CC(=O)O)C1=O)=C\c1ccccc1 [Epalrestat] | – | –

Row | SMILES | IC50 cell viability (HCT116 [1]; ICRF193 0 nM) [µM] | IC50 cell viability (HCT116 [1]; ICRF193 200 nM) [µM] | efficacy (HCT116 [2]; ICRF193 0 nM) [%] | efficacy (HCT116 [2]; ICRF193 200 nM) [%]
53 | C[C@]12CC[C@H](O)C[C@H]1CC[C@@H]1[C@@H]2CC[C@]2(C)[C@@H](c3ccc(=O)oc3)C[C@H]3O[C@]132 [Bufogenin] | 4.61 | 4.61 | 71.3 | 84.6
54 | CC(=O)[O][Hg][c]1ccccc1 [Phenylmercuric acetate] | 4.61 | 5.17 | 106 | 97.9
55 | C[C@]12CC[C@H]3[C@@H](CCC4=CC(=O)CC[C@@]43C)[C@@H]1CC[C@@H]2OC(=O)CCc1ccccc1 [Testosterone 17-phenylpropionate] | > 45.8 | > 45.8 | – | –
56 | Cn1sc(Cl)cc1=O [5-Chloro-2-methyl-3(2H)-isothiazolone] | > 45.8 | > 45.8 | – | –
57 | C=C[C@H]1CN2CC[C@H]1C[C@H]2[C@H](OC(=O)OCC)c1ccnc2ccc(OC)cc12 [QUININE ETHYL CARBONATE] | > 45.8 | > 45.8 | – | –
58 | CCOC(=O)CC(SP(=S)(OC)OC)C(=O)OCC (configuration not stated) [Malathion] | > 45.8 | > 45.8 | – | –
59 | CCCCCCCCCCCC(=O)[O][Sn]([CH2]CCC)([CH2]CCC)[O]C(=O)CCCCCCCCCCC [Dibutyltin dilaurate] | > 45.8 | > 45.8 | – | –
